# Laboratory results taken from the supplement of paper PMC10307832.
# How the values were obtained:
# Assay in all cases: relative viability (nuclei count vs DMSO), 5 days (fraction); higher = more cells survive
# [1] = compound: CN1CCC(CNc2ccc3ncc(-c4cccc(OC(F)(F)F)c4)n3n2)CC1 [SGI-1776]
# Summary of the method: (§1)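 Acceptance criteria were a control CV below 25% and at least one doubling per plate. Lung cancer cell lines in 1536-well plates got five library-drug doses (not always all listed) √10 apart by pinning and were left 5 days with no medium change. Viability divides treated-well nuclei by vehicle-well nuclei and is the median across plates. Nuclei were counted by MetaXpress from 4× Hoechst images.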
# [2] = compound: C1COCCN1C2=NC(=NC3=C2OC4=C3C=CC=N4)C5=CC(=CC=C5)NC(=O)C6=CN=C(C=C6)N
# Summary of the method: as §1
# [3] = compound: Nc1ccccc1NC(=O)c1ccc(CNC(=O)OCc2cccnc2)cc1 [Entinostat]
# Summary of the method: as §1
# [4] = compound: CN1CCC(CNc2ccc3ncc(-c4cccc(OC(F)(F)F)c4)n3n2)CC1 [SGI-1776] + Cc1nc(Nc2ncc(C(=O)Nc3c(C)cccc3Cl)s2)cc(N2CCN(CCO)CC2)n1 [Dasatinib] (partner 0.075 µM)
# Summary of the method: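 Lung cancer cell lines were seeded in 1536-well plates and dosed by pin tool the next day, with either a single drug or a fixed anchor-drug dose combined with five library-drug doses (not always all listed) spaced in √10 steps. Five days later, one step fixed the cells and stained their nuclei (final 0.05% Triton X-100, 1% formaldehyde, 1 ug/ml Hoechst), and nuclei were counted on 4× images. Relative viability is the nuclei count in treated wells divided by the count in vehicle wells, and each value is the median of duplicate plates.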
Cell Line,relative viability ([1]; 0.08 µM),relative viability ([1]; 0.8 µM),relative viability ([1]; 2.53 µM),relative viability ([1]; 8 µM),relative viability ([2]; 0.02 µM),relative viability ([2]; 0.06325 µM),relative viability ([2]; 0.2 µM),relative viability ([2]; 0.6325 µM),relative viability ([2]; 2 µM),relative viability ([3]; 0.02 µM),relative viability ([3]; 0.06325 µM),relative viability ([3]; 0.2 µM),relative viability ([3]; 0.6325 µM),relative viability ([3]; 2 µM),relative viability ([4]; first compound 0.08 µM),relative viability ([4]; first compound 0.8 µM),relative viability ([4]; first compound 2.53 µM),relative viability ([4]; first compound 8 µM)
NCI-H2170,0.947,1,0.961,0.893,1,1.07,1.06,0.995,0.773,0.995,0.996,0.984,0.708,0.525,0.651,0.527,0.354,0.434
NCI-H2228,0.966,1.02,0.808,0.71,0.899,1.16,1.01,0.92,0.418,0.852,1.01,0.944,0.625,0.359,0.581,0.665,0.416,0.27
NCI-H2342,1.1,0.927,0.914,1.07,1,1.1,0.938,0.928,0.827,1.07,1.08,0.907,0.908,0.73,0.364,0.326,0.289,0.301
NCI-H2347,1.13,1.08,1.02,0.963,0.983,1.09,1.09,0.977,0.741,1.03,0.992,0.91,0.521,0.366,0.346,0.319,0.306,0.265
NCI-H2405,1.04,1.08,0.793,0.826,0.987,1.05,0.97,0.953,0.779,1.03,1.15,0.972,0.915,0.609,0.225,0.195,0.178,0.166
NCI-H3122,1.03,0.99,1.04,1.05,1.03,1.01,1.01,1.05,0.862,1,1.03,1.02,0.959,0.677,0.877,0.76,0.96,0.821
PC-3 [JPC-3],1.07,1.09,1.01,0.805,1.06,1.05,1.06,1.03,0.927,1.03,1.01,1.02,0.57,0.488,1.1,0.961,0.977,0.857
PC-14,1.09,1.03,0.972,0.491,0.974,1.14,1.03,0.852,0.525,1.08,1.11,1.06,0.424,0.14,0.267,0.256,0.0958,0.0261
RERF-LC-KJ,1.03,1,0.957,0.843,1.01,1.05,0.973,0.928,0.743,0.952,0.986,0.922,0.631,0.297,0.803,0.688,0.7,0.447
SK-LU-1,1.23,1.09,1.03,0.839,1.11,1.12,1.03,1.01,0.554,1.01,1.08,1.02,0.698,0.57,0.171,0.183,0.169,0.116
SK-MES-1,1.06,1.07,1,0.868,1.02,1.08,0.925,0.868,0.673,1.01,1.15,1.19,1.02,0.701,0.476,0.415,0.35,0.211
SW 900,0.891,1.01,0.746,0.526,0.759,1.01,0.87,0.784,0.76,0.92,0.944,0.92,0.748,0.519,0.542,0.387,0.56,0.301
SW 1573,1.06,0.965,0.959,0.754,0.954,1.09,1.03,0.918,0.611,0.998,1.11,1.09,1,0.874,0.457,0.456,0.457,0.295
